Legend:
Experiment in all cases: relative viability (nuclei count vs DMSO), 5 days (fraction); higher = more cells survive
NCI-H2347 = test system: NCI-H2347
In short: (§1)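 Nuclei were stained with Hoechst during a one-step fixation (final 0.05% Triton X-100, 1% formaldehyde, 1 ug/ml Hoechst) carried out 5 days after dosing, then counted on 4× images. The cells, lung cancer lines in 1536-well plates, had been dosed by pin tool the day after seeding with one drug alone or a fixed anchor-drug dose plus five library-drug doses (not always all listed) in √10 steps. Relative viability is the nuclei count in treated wells divided by that in vehicle wells, and each value is the median of duplicate plates.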

COR-L23 = test system: COR-L23
In short: as §1

HOP-62 = test system: HOP-62
In short: as §1

NCI-H1993 = test system: NCI-H1993
In short: as §1

NCI-H647 = test system: NCI-H647
In short: as §1

SK-MES-1 = test system: SK-MES-1
In short: as §1

NCI-H1792 = test system: NCI-H1792
In short: as §1

NCI-H522 = test system: NCI-H522
In short: as §1

NCI-H1734 = test system: NCI-H1734
In short: as §1

COR-L 105 = test system: COR-L 105
In short: as §1

NCI-H2228 = test system: NCI-H2228
In short: as §1

UMC-11 = test system: UMC-11
In short: as §1

NCI-H1395 = test system: NCI-H1395
In short: as §1

HARA = test system: HARA
In short: as §1

NCI-H1755 = test system: NCI-H1755
In short: as §1

NCI-H838 = test system: NCI-H838
In short: as §1

NCI-H1793 = test system: NCI-H1793
In short: as §1

NCI-H2170 = test system: NCI-H2170
In short: as §1

NCI-H358 = test system: NCI-H358
In short: as §1

HCC-15 = test system: HCC-15
In short: as §1

NCI-H2009 = test system: NCI-H2009
In short: as §1

NCI-H1355 = test system: NCI-H1355
In short: as §1

O=c1cc(-c2cccc3c2Sc2ccccc2S3)oc(N2CCOCC2)c1 + Cc1nc(Nc2ncc(C(=O)Nc3c(C)cccc3Cl)s2)cc(N2CCN(CCO)CC2)n1 [Dasatinib] (partner 0.075 µM)
relative viability (NCI-H2347; first compound 0.08 µM): 0.298 | relative viability (NCI-H2347; first compound 0.253 µM): 0.286 | relative viability (NCI-H2347; first compound 0.8 µM): 0.296 | relative viability (NCI-H2347; first compound 2.53 µM): 0.304 | relative viability (NCI-H2347; first compound 8 µM): 0.298 | relative viability (COR-L23; first compound 0.08 µM): 0.564 | relative viability (COR-L23; first compound 0.253 µM): 0.589 | relative viability (COR-L23; first compound 0.8 µM): 0.571 | relative viability (COR-L23; first compound 2.53 µM): 0.58 | relative viability (COR-L23; first compound 8 µM): 0.504 | relative viability (HOP-62; first compound 0.08 µM): 0.615 | relative viability (HOP-62; first compound 0.253 µM): 0.835 | relative viability (HOP-62; first compound 0.8 µM): 0.679 | relative viability (HOP-62; first compound 2.53 µM): 0.562 | relative viability (HOP-62; first compound 8 µM): 0.543 | relative viability (NCI-H1993; first compound 0.08 µM): 0.519 | relative viability (NCI-H1993; first compound 0.253 µM): 0.581 | relative viability (NCI-H1993; first compound 0.8 µM): 0.544 | relative viability (NCI-H1993; first compound 2.53 µM): 0.525 | relative viability (NCI-H1993; first compound 8 µM): 0.56 | relative viability (NCI-H647; first compound 0.08 µM): 0.128 | relative viability (NCI-H647; first compound 0.253 µM): 0.205 | relative viability (NCI-H647; first compound 0.8 µM): 0.208 | relative viability (NCI-H647; first compound 2.53 µM): 0.123 | relative viability (NCI-H647; first compound 8 µM): 0.155 | relative viability (SK-MES-1; first compound 0.08 µM): 0.335 | relative viability (SK-MES-1; first compound 0.253 µM): 0.256 | relative viability (SK-MES-1; first compound 0.8 µM): 0.312 | relative viability (SK-MES-1; first compound 2.53 µM): 0.317 | relative viability (SK-MES-1; first compound 8 µM): 0.289 | relative viability (NCI-H1792; first compound 0.08 µM): 0.791 | relative viability (NCI-H1792; first compound 0.253 µM): 1.01 | relative viability (NCI-H1792; first compound 0.8 µM): 0.617 | relative viability (NCI-H1792; first compound 2.53 µM): 0.728 | relative viability (NCI-H1792; first compound 8 µM): 1.04 | relative viability (NCI-H522; first compound 0.08 µM): 0.895 | relative viability (NCI-H522; first compound 0.253 µM): 0.983 | relative viability (NCI-H522; first compound 0.8 µM): 0.872 | relative viability (NCI-H522; first compound 2.53 µM): 0.71 | relative viability (NCI-H522; first compound 8 µM): 0.781 | relative viability (NCI-H1734; first compound 0.08 µM): 0.469 | relative viability (NCI-H1734; first compound 0.253 µM): 0.49 | relative viability (NCI-H1734; first compound 0.8 µM): 0.503 | relative viability (NCI-H1734; first compound 8 µM): 0.513 | relative viability (COR-L 105; first compound 0.08 µM): 0.311 | relative viability (COR-L 105; first compound 0.253 µM): 0.311 | relative viability (COR-L 105; first compound 0.8 µM): 0.326 | relative viability (COR-L 105; first compound 2.53 µM): 0.356 | relative viability (COR-L 105; first compound 8 µM): 0.31 | relative viability (NCI-H2228; first compound 0.08 µM): 0.547 | relative viability (NCI-H2228; first compound 0.253 µM): 0.6 | relative viability (NCI-H2228; first compound 0.8 µM): 0.625 | relative viability (NCI-H2228; first compound 2.53 µM): 0.402 | relative viability (NCI-H2228; first compound 8 µM): 0.51 | relative viability (UMC-11; first compound 0.08 µM): 0.537 | relative viability (UMC-11; first compound 0.253 µM): 0.591 | relative viability (UMC-11; first compound 0.8 µM): 0.535 | relative viability (UMC-11; first compound 2.53 µM): 0.433 | relative viability (UMC-11; first compound 8 µM): 0.752 | relative viability (NCI-H1395; first compound 0.08 µM): 0.425 | relative viability (NCI-H1395; first compound 0.253 µM): 0.366 | relative viability (NCI-H1395; first compound 0.8 µM): 0.436 | relative viability (NCI-H1395; first compound 2.53 µM): 0.338 | relative viability (NCI-H1395; first compound 8 µM): 0.386 | relative viability (HARA; first compound 0.08 µM): 0.294 | relative viability (HARA; first compound 0.253 µM): 0.31 | relative viability (HARA; first compound 0.8 µM): 0.234 | relative viability (HARA; first compound 2.53 µM): 0.241 | relative viability (HARA; first compound 8 µM): 0.377 | relative viability (NCI-H1755; first compound 0.08 µM): 0.434 | relative viability (NCI-H1755; first compound 0.253 µM): 0.44 | relative viability (NCI-H1755; first compound 0.8 µM): 0.416 | relative viability (NCI-H1755; first compound 2.53 µM): 0.324 | relative viability (NCI-H1755; first compound 8 µM): 0.381 | relative viability (NCI-H838; first compound 0.08 µM): 0.273 | relative viability (NCI-H838; first compound 0.253 µM): 0.283 | relative viability (NCI-H838; first compound 0.8 µM): 0.276 | relative viability (NCI-H838; first compound 2.53 µM): 0.278 | relative viability (NCI-H838; first compound 8 µM): 0.273 | relative viability (NCI-H1793; first compound 0.08 µM): 0.379 | relative viability (NCI-H1793; first compound 0.253 µM): 0.441 | relative viability (NCI-H1793; first compound 0.8 µM): 0.335 | relative viability (NCI-H1793; first compound 2.53 µM): 0.379 | relative viability (NCI-H1793; first compound 8 µM): 0.386 | relative viability (NCI-H2170; first compound 0.08 µM): 0.494 | relative viability (NCI-H2170; first compound 0.253 µM): 0.571 | relative viability (NCI-H2170; first compound 0.8 µM): 0.611 | relative viability (NCI-H2170; first compound 2.53 µM): 0.477 | relative viability (NCI-H2170; first compound 8 µM): 0.564 | relative viability (NCI-H358; first compound 0.08 µM): 0.145 | relative viability (NCI-H358; first compound 0.253 µM): 0.163 | relative viability (NCI-H358; first compound 0.8 µM): 0.148 | relative viability (NCI-H358; first compound 2.53 µM): 0.152 | relative viability (NCI-H358; first compound 8 µM): 0.189 | relative viability (HCC-15; first compound 0.08 µM): 0.606 | relative viability (HCC-15; first compound 0.253 µM): 0.733 | relative viability (HCC-15; first compound 0.8 µM): 0.546 | relative viability (HCC-15; first compound 2.53 µM): 0.563 | relative viability (HCC-15; first compound 8 µM): 0.659 | relative viability (NCI-H2009; first compound 0.08 µM): 0.298 | relative viability (NCI-H2009; first compound 0.253 µM): 0.301 | relative viability (NCI-H2009; first compound 0.8 µM): 0.29 | relative viability (NCI-H2009; first compound 2.53 µM): 0.235 | relative viability (NCI-H2009; first compound 8 µM): 0.254 | relative viability (NCI-H1355; first compound 0.08 µM): 0.754 | relative viability (NCI-H1355; first compound 0.253 µM): 0.619 | relative viability (NCI-H1355; first compound 0.8 µM): 0.488 | relative viability (NCI-H1355; first compound 2.53 µM): 0.615 | relative viability (NCI-H1355; first compound 8 µM): 0.694

From the supplement of paper PMC10307832
